From patent publication US20240182431A1, “NEW CONTRAST AGENT FOR USE IN MAGNETIC RESONANCE IMAGING” (Bayer Aktiengesellschaft, priority 2021, published 2024)

How the values were obtained:
[1] = Partition coefficient (logP butanol/buffer); type: physicochemical; conditions: 1-butanol / 50 mM Tris-HCl, pH 7.4, room temperature
[2] = Excretion study in rats (5 days) and residual gadolinium organ distribution (7 days); type: in vivo, rat; conditions: male rats, 0.1 mmol Gd/kg bw i.v.
Method: The excretion and organ distribution of Example 1 and 15 were determined in male rats (Han-Wistar, n=3). The compound was administered as a sterile aqueous solution (50 mmol Gd/L) as a bolus in the tail vein of the animals. The dose was 0.1 mmol Gd/kg bw.
Urine was collected in the following time periods 0-1 h, 1-3 h, 3-6 h, 6-24 h, 1-2 d and 2-5 d post injection […] and feces 0-1 d, 1-2 d and 2-5 d post injection. As a control, 3 animals were treated in the same way with RC1. On day 7 the animals were sacrificed, and the following organs were excised: blood, liver, kidney, spleen, heart, lung, brain, muscle, skin, stomach, gut, bone and bone marrow. The remaining carcass was freeze dried and ground to a fine powder. The Gd concentration in the organs and the carcass was determined by ICP-MS (ICP-MS Agilent 7500a, Waldbronn, Germany). The compounds are excreted via dual pathway (liver and kidney). Less than 1% of the administered dose was present in the body 7 days after the injection.

SMILES	Log P (butanol/buffer) [1]	further results
CCOCCOCCOc1ccc(CC(C(=O)O)N2CCN(CC(=O)[O-])CCN(CC(=O)[O-])CCN(CC(=O)[O-])CC2)cn1.[Gd+3] (centres unmarked) [Example 16, gadolinium 2,2′,2″-{10-[1-carboxy-2-{6-[2-(2-ethoxyethoxy)ethoxy]pyridin-3-yl}ethyl]-1,4,7,10-tetraazacyclododecane-1,4,7-triyl}triacetate]	−1.81	
CCOCCOCCOc1ccc(C[C@H](C(=O)O)N2CCN(CC(=O)[O-])CCN(CC(=O)[O-])CCN(CC(=O)[O-])CC2)cc1.[Gd+3] [Example 4, gadolinium 2,2′,2″-{10-[(1R)-1-carboxy-2-{4-[2-(2-ethoxyethoxy)ethoxy]phenyl}ethyl]-1,4,7,10-tetraazacyclododecane-1,4,7-triyl}triacetate]	−1.61	
CCOCCOCCOc1ccc(CCC[C@@H](C(=O)O)N2CCN([C@H](CO)C(=O)[O-])CCN([C@H](CO)C(=O)[O-])CCN([C@H](CO)C(=O)[O-])CC2)cc1.[Gd+3] [Example 20, gadolinium (2R,2′R,2″R)-2,2′,2″-{10-[(1S)-1-carboxy-4-{4-[2-(2-ethoxyethoxy)ethoxy]phenyl}butyl]-1,4,7,10-tetraazacyclododecane-1,4,7-triyl}tris(3-hydroxypropanoate)]	−1.11	
CCCCOc1ccc(CCC[C@@H](C(=O)O)N2CCN(CC(=O)[O-])CCN(CC(=O)[O-])CCN(CC(=O)[O-])CC2)cc1.[Gd+3] [Example 31, gadolinium 2,2′,2″-{10-[(1S)-4-(4-butoxyphenyl)-1-carboxybutyl]-1,4,7,10-tetraazacyclododecane-1,4,7-triyl}triacetate]	0.20	
CCOCCOCCOc1ccc(CC(C(=O)O)N2CCN(CC(=O)[O-])CCN(C(C)C(=O)[O-])CCN(CC(=O)[O-])CC2)cc1.[Gd+3] (single isomer, unassigned) [Example 6, gadolinium 2-[7-(1-carboxy-2-{4-[2-(2-ethoxyethoxy)ethoxy]phenyl}ethyl)-4,10-bis(carboxylatomethyl)-1,4,7,10-tetraazacyclododecan-1-yl]propanoate]	−1.44	
CCCCOc1ccc(CCCC[C@@H](C(=O)O)N2CCN([C@@H](CO)C(=O)[O-])CCN([C@@H](CO)C(=O)[O-])CCN([C@@H](CO)C(=O)[O-])CC2)cc1.[Gd+3] [Example 9, gadolinium (2S,2′S,2″S)-2,2′,2″-{10-[(1S)-5-(4-butoxyphenyl)-1-carboxypentyl]-1,4,7,10-tetraazacyclododecane-1,4,7-triyl}tris(3-hydroxypropanoate)]	0.26	
CCOCCOCCOCCOc1ccc(CC(C(=O)O)N2CCN(CC(=O)[O-])CCN(CC(=O)[O-])CCN(CC(=O)[O-])CC2)cc1.[Gd+3] (centres unmarked) [Example 10, gadolinium 2,2′,2″-{10-[1-carboxy-2-(4-{2-[2-(2-ethoxyethoxy)ethoxy]ethoxy}phenyl)ethyl]-1,4,7,10-tetraazacyclododecane-1,4,7-triyl}triacetate]	−1.70	
CCOCCOc1ccc(CC(C(=O)O)N2CCN(CC(=O)[O-])CCN(C(COC)C(=O)[O-])CCN(CC(=O)[O-])CC2)cc1.[Gd+3] (centres unmarked) [Example 38, gadolinium 2-[7-{1-carboxy-2-[4-(2-ethoxyethoxy)phenyl]ethyl}-4,10-bis(carboxylatomethyl)-1,4,7,10-tetraazacyclododecan-1-yl]-3-methoxypropanoate]	−1.41	
CCOc1ccc(CCCC[C@@H](C(=O)O)N2CCN(CC(=O)[O-])CCN(CC(=O)[O-])CCN(CC(=O)[O-])CC2)cc1.[Gd+3] [Example 27, gadolinium 2,2′,2″-{10-[(1S)-1-carboxy-5-(4-ethoxyphenyl)pentyl]-1,4,7,10-tetraazacyclo-dodecane-1,4,7-triyl}triacetate]	−0.41	
CCCC(C(=O)[O-])N1CCN(CC(=O)[O-])CCN(C(Cc2ccc(OCC)cc2)C(=O)O)CCN(CC(=O)[O-])CC1.[Gd+3] (centres unmarked) [Example 30, gadolinium 2-{7-[1-carboxy-2-(4-ethoxyphenyl)ethyl]-4,10-bis(carboxylatomethyl)-1,4,7,10-tetraazacyclododecan-1-yl}pentanoate]	−0.60	
CCCC(C(=O)[O-])N1CCN(CC(=O)[O-])CCN(C(Cc2ccc(OCC)cc2)C(=O)O)CCN(CC(=O)[O-])CC1.[Gd+3] (centres unmarked) [Example 29, gadolinium 2-{7-[1-carboxy-2-(4-ethoxyphenyl)ethyl]-4,10-bis(carboxylatomethyl)-1,4,7,10-tetraazacyclododecan-1-yl}pentanoate]	−0.53	
CCOCCOCCOc1ccc(CCC[C@@H](C(=O)O)N2CCN(C(CO)C(=O)[O-])CCN(C(CO)C(=O)[O-])CCN(C(CO)C(=O)[O-])CC2)cc1.[Gd+3] (mixture of isomers) [Example 21, gadolinium-2,2′,2″-{10-[(1S)-1-carboxy-4-{4-[2-(2-ethoxyethoxy)ethoxy]phenyl}butyl]-1,4,7,10-tetraazacyclododecane-1,4,7-triyl}tris(3-hydroxypropanoate)]	−1.03	
CCOCCOCCOCCOc1ccc(CC(C(=O)O)N2CCN(CC(=O)[O-])CCN(C(COC)C(=O)[O-])CCN(CC(=O)[O-])CC2)cc1.[Gd+3] (centres unmarked) [Example 13, gadolinium 2-{7-[1-carboxy-2-(4-{2-[2-(2-ethoxyethoxy)ethoxy]ethoxy}phenyl)ethyl]-4,10-bis(carboxylatomethyl)-1,4,7,10-tetraazacyclododecan-1-yl}-3-methoxypropanoate]	−1.53	
CCOCCOCCOc1ccc(CC(C(=O)O)N2CCN(C(CCO)C(=O)[O-])CCN(C(CCO)C(=O)[O-])CCN(C(CCO)C(=O)[O-])CC2)cc1.[Gd+3] (centres unmarked) [Example 37, gadolinium-2,2′-{4-[1-carboxy-2-{4-[2-(2-ethoxyethoxy)ethoxy]phenyl}ethyl]-10-[1-carboxylato-3-hydroxypropyl]-1,4,7,10-tetraazacyclododecane-1,7-diyl}bis(4-hydroxybutanoate)]	−1.16	
CCOCCOCCOCCOc1ccc(C[C@@H](C(=O)O)N2CCN(CC(=O)[O-])CCN(CC(=O)[O-])CCN(CC(=O)[O-])CC2)cc1.[Gd+3] [Example 11, gadolinium 2,2′,2″-{10-[(1S)-1-carboxy-2-(4-{2-[2-(2-ethoxyethoxy)ethoxy]ethoxy}phenyl)ethyl]-1,4,7,10-tetraazacyclododecane-1,4,7-triyl}triacetate]	−1.68	
CCOCCOCCOc1ccc(CCC[C@@H](C(=O)O)N2CCN([C@@H](CO)C(=O)[O-])CCN([C@@H](CO)C(=O)[O-])CCN([C@@H](CO)C(=O)[O-])CC2)cc1.[Gd+3] [Example 15, gadolinium (2S,2′S,2″S)-2,2′,2″-{10-[(1S)-1-carboxy-4-{4-[2-(2-ethoxyethoxy)ethoxy]phenyl}butyl]-1,4,7,10-tetraazacyclododecane-1,4,7-triyl}tris(3-hydroxypropanoate)]	−1.00	Excretion Urine ([2]; 0-1 h post injection): 12.6 ± 11.1% Dose; Excretion Feces ([2]; 0-1 d post injection): 78.6 ± 6.2% Dose; Excretion Urine ([2]; 1-3 h post injection): 17.3 ± 3.4% Dose; Excretion Feces ([2]; 1-2 d post injection): 80.0 ± 5.3% Dose; Excretion Urine ([2]; 1-2 d post injection): 17.7 ± 3.3% Dose; Excretion Feces ([2]; 2-5 d post injection): 80.0 ± 5.3% Dose; Excretion Urine ([2]; 2-5 d post injection): 17.7 ± 3.3% Dose; Excretion Urine ([2]; 3-6 h post injection): 17.4 ± 3.3% Dose; Excretion Urine ([2]; 6-24 h post injection): 17.6 ± 3.3% Dose; Σ organs and carcass ([2]; 7 d post injection): 0.11 ± 0.03% Dose; Total recovery [2]: 97.9 ± 5.4% Dose
CCOCCOc1ccc(CC(C(=O)O)N2CCN(CC(=O)[O-])CCN(CC(=O)[O-])CCN(CC(=O)[O-])CC2)cc1.[Gd+3] (centres unmarked) [Example 32, gadolinium 2,2′,2″-(10-{1-carboxy-2-[4-(2-ethoxyethoxy)phenyl]ethyl}-1,4,7,10-tetraazacyclododecane-1,4,7-triyl)triacetate]	−1.53	
CCOCCOCCOc1cc(CC(C(=O)O)N2CCN(CC(=O)[O-])CCN(CC(=O)[O-])CCN(CC(=O)[O-])CC2)cc(OCCOCCOCC)c1.[Gd+3] (centres unmarked) [Example 39, gadolinium 2,2′,2″-{10-[2-{3,5-bis[2-(2-ethoxyethoxy)ethoxy]phenyl}-1-carboxyethyl]-1,4,7,10-tetraazacyclododecane-1,4,7-triyl}triacetate]	−1.32	
